For one data set, the system named is Src-kinase. Briefly: Immunoblotting of treated HUVECs, Src-kinase. In kind it is cell-based, human. The note with it: 250 nM, 6 h. The method, then:
(A) Serum-starved HUVECs were treated with control (0.1% DMSO), sunitinib and Compound 1 at a given concentrations and then incubated for 6 h. The expression level of phospho-VEGFR2 and GAPDH (housekeeping protein) was analyzed by immunoblotting. (B) Blots were quantified with Image-J software and the bar graphs represent the relative density of phospho-VEGFR2 normalized with GAPDH and the data are represented as mean±SEM with significant difference compared with control at *p<0.05. (D) Protein angiogenesis array showing up-regulation of anti-angiogenic protein and down-regulation of pro-angiogenic proteins on endothelial cell treated with Compound 1 at 260 nM.
Whole cell lysates of endothelial cells at 6 h of treatment with Compound 1 (250 nM) and sunitinib (50 nM) were prepared using the RIPA-lysis buffer. Proteins were fractionated and resolved on 8% SDS-PAGE gels and transferred onto PVDF membranes (Millipore). After incubation in blocking buffer (5% BSA in 1×TBST) for 1 h the membranes were incubated with primary antibodies specific for p-Akt and p-Src. GAPDH was used as housekeeping and loading control. The blots were then incubated with specific HRP-conjugated secondary antibodies and bands were visualized using ECL (Millipore) on Image Quant (LAS4010) chemiluminescence detection system. The band intensities were quantified using My Image Analysis software.
Background: A western blot detects proteins with antibodies after separation by electrophoresis.

The next data set deals with HUVECs. The data set can be described thus: Capillary-like tube formation assay (tubulogenesis). In kind it is cell-based, human. Put shortly: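 HUVECs seeded on Matrigel (regular or reduced growth factor) in incomplete ECM basal medium, treated with compound for 6 h; VEGF 50 ng/mL positive and sunitinib 50 nM negative controls. Calcein-AM-stained tubules imaged at 10× and tubule length expressed as % of 0.1% DMSO vehicle.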

A further data set concerns ECs. Briefly: Post tubule formation assay (disruption of preformed tubules). In kind it is cell-based, human. The note with it: treatment of already formed tubule. As for the experimental part: FIG. 3 represents effect of Compound 1 on post tubule formation by ECs. (A) ECs were incubated with indicated different concentrations of compound 1 along with VEGF (50 ng/mL) and sunitinib (50 nM) after 6 h of treatment to the already formed tubule. Post treatment photographs were taken at using an inverted microscope at 10×magnification.

For the next data set, the system named is chick CAM. Briefly: CAM (chick chorio-allantoic membrane) assay. The note with it: 500 nM and 250 nM. In kind it is in vivo. As for the experimental part:
(A) Chick CAM assays were used to observe the effect of Compound 1 on angiogenesis in vivo. 1 mm^2 window was made in 8 days old chicken eggs to expose the CAM, and a gelatin disc ([…]) treated with vehicle (0.1% DMSO), sunitinib and Compound 1 at a indicated concentrations were placed on the CAM surface. Post 4 days of incubation, the discs and associated CAM were photographed and excised out, for hemoglobin estimation by drapkin's reagent. (B) Blood vessel density was calculated and Hb. concentration was measured and representative graph was plotted for the control and treatment group and data are represented as mean±SEM with significant difference from control at *p<0.05, **p<0.01 and ***p<0.001.
The eggs were incubated horizontally for 3 days at 37° C. in a 60% humidified atmosphere, using a hybridization incubator (combi-SV 12) with one hour scheduled rotation. Post 3 days of incubation, 2-3 mL of albumin was aspirated from the acute pole of the egg to create false air sac directly over the CAM. Post fertilization (Day 8), a fine blade was used to make an approximate 0.5 cc square incision on the eggshell under sterile conditions and the eggshell window fragment was removed to access the CAM beneath. A piece of gelatin sponge embedded in Compound 1 (500 nM and 250 nM) and sunitinib (2 μM) individually were placed on the CAM of the chicken embryo and incubated for 12 days. Sterile parafilm tape was used to seal back the window and the eggs were further incubated without the rotation setting. After 12 days of incubation the CAM integration was assessed by visual inspection and photographed with a digital camera (Canon EOS); the CAM membrane along with gelatin sponge were harvested and its hemoglobin (Hb.) estimation was done by Drabkin's method according to the manufacturer's protocol (Sigma, St. Louis, Mo.). Absorbance was measured at 540 nm and hemoglobin concentration was calculated.

In general, IC50 refers to the concentration needed to halve the response being measured.

As to `CCOC(=O)C1N=C1CCc1ccc(OC)cc1` (racemic) [Compound 1, Ethyl 3-(4-methoxyphenethyl)-2H-azirine-2-carboxylate], in the data set with Src-kinase, the Src-kinase expression entry is “marked reduction”. For the same molecule, in the data set on HUVECs, the “anti-angiogenic activity on primary tubulogenesis screening” value is 75 nM. For the same molecule, the tubule formation entry is “complete angiogenesis” with HUVECs (25 nM, 6 h); “approximately 15%” in the data set with HUVECs (100 nM combined with sunitinib at 20 nM, 6 h); “light increase in the tubule formation” in the data set on HUVECs (250 nM till 125 nM, 6 h). Also, the “tubule formation as compared to control” value with HUVECs (75 nM, 6 h) is recorded as 50%. In the data set with HUVECs (10 μM till 500 nM, 6 h), the tubulogenesis inhibition entry is “complete tubulogenesis inhibition”. The IC50 with HUVECs (Homo sapiens, HUVEC, endothelial tubule network assay, anti-angiogenic activity, read-out: IC50 value) amounted to 75 nM. In addition, the remarks entry in the data set with HUVECs (remark on IC50 versus sunitinib) was “comparable to sunitinib”. Further, in the data set with HUVECs (till 500 nM, 6 h), the “toxic effect on the cells” value was “no toxic effect”. The “disruption of preformed tubules” value in the data set with ECs was “could not be able to disrupt the preformed tubules”. Besides, the blood vessels density result in the data set with chick CAM is recorded as “suppressed blood vessels density”. For the same molecule, the hemoglobin content in the data set with chick CAM was in the range of 50 to 60 µg/mL.

These data come from US20230234920A1, “Azirine Containing Compounds as Anti-Angiogenesis Agents and a Process for the Preparation Thereof” (COUNCIL OF SCIENTIFIC & INDUSTRIAL RESEARCH, priority 2020, published 2023).
